Test results as given in patent US20120245229A1, “METHOD FOR TREATING NEUROPATHIC PAIN” (priority 2009, published 2012).

Key:
[1] = system: proinflammatory cytokines (TNF-α, IL-1β, IL-6) and chemokines (MCP-1, MIP-1α); assay: Cytokine array of inflamed hindpaw skin after carrageenan; assay type: in vivo, mouse; conditions: intraplantar RvE1 20 ng prior to CRG; 2 h after CRG
Description: The mouse cytokine array kits were purchased from R&D. Protein samples were prepared in the same way as for Western blotting analysis. Each reaction was performed according to manufacturer's protocol using 400 μg proteins. In brief, protein samples were incubated with a blot (array) that is pre-coated with 40 cytokines/chemokines for 24 h at 4° C. The remaining procedures were similar to that of Western blotting. Also see Gao et al., 2009^12.

[2] = system: capsaicin-induced spontaneous pain; assay: Capsaicin-induced acute spontaneous pain; assay type: in vivo, mice
Description: Behavioral analysis. Mice were habituated in the testing environment for two days and performed behavioral testing in a blinded manner. Formalin-evoked spontaneous inflammatory pain was assessed by measuring duration (seconds) animals spent on licking/flinching the affected paws every 5 min for 45 min. Capsaicin-induced spontaneous pain was aslo assessed for 10 min. For testing mechanical sensitivity, mice were put in boxes on an elevated metal mesh floor and stimulated hindpaw with a series of von Frey hairs with logarithmically incrementing stiffness (0.02-2.56 grams, Stoelting), presented perpendicular to the plantar surface. It was determined the 50% paw withdrawal threshold using Dixon's up-down method^40. For testing heat sensitivity, mice were placed in plastic boxes and tested heat sensitivity using Hargreaves radiant heat apparatus (IITC Life Science Inc.). The basal paw withdrawal latency was adjusted to 9-12 seconds and set a cut-off of 20 seconds to prevent tissue damage. […] BL1, baseline latency before inflammation; BL2, baseline latency after inflammation but before drug injection; PL, latency post drug injection. Intrathecal injection: […] To examine whether pretreatment of RvE1 attenuates capsaicin-induced acute spontaneous pain, RvE1 and capsaicin were mixed and injected at the same time (FIG. 3f). […]

CC[C@@H](O)/C=C/C=C\C[C@@H](O)/C=C/C=C/C=C\[C@@H](O)CCCC(=O)O [RvE1, 5S,12R,18R-trihydroxyeicosapentaenoic acid]
expression of proinflammatory cytokines (TNF-α, IL-1β, IL-6) and chemokines (MCP-1, MIP-1α) in inflamed hindpaws [1]: reducing | intrathecal capsaicin-evoked acute spontaneous pain ([2]; intrathecal RvE1 mixed with capsaicin 0.5 μg): prevented | intraplantar capsaicin-induced acute pain ([2]; peripheral (intraplantar) RvE1 10 min before capsaicin 5 μg): reduced
